Source: PMC7395048 (Archives of Toxicology, 2020)
“Also recorded” adds a separate entry of the source. Marks after values point to notes of the source that are not given here.

Experiments:
hiPSC-CM = hiPSC-CM MEA assay (FPDc, extracellular field potential); conditions: for cytotoxicity at the test concentrations: up to 30 µM, data not shown
Description: Briefly, each well of the MEA chips was precoated with 50 μg/ml fibronectin for 3 h in the incubator at 37 °C with 5% CO2. The fibronectin coating solution was aspirated before seeding. Cells were thawed in the incubator at 37 °C for exactly 4 min and carefully transferred to a 50-ml tube. The original vial was rinsed with serum free Pluricyte® Cardiomyocyte Medium and added drop-wise to the tube containing the cardiomyocytes. […] Then, the supernatant was removed and medium was drop-wisely added to reach the aimed concentration of cells in the suspension (10^4 cells/μl). 2-μl cell suspension per well was placed on the six-well MEA chips in a density of 10^4 cells/μl. After 3-h incubation (37 °C, 5% CO2), 200 μl of medium was filled into each well of the MEA chips which were subsequently incubated at 37 °C with 5% CO2 and refreshed with medium every 2 days.
At 7–8 days after seeding, MEA chips were placed on the headstage of a MEA2100-system (MCS GmbH) integrated with the chamber providing a stable atmosphere (37 °C, 5% CO2) to record the extracellular field potential (Fig. 2) of spontaneous beating hiPSC-CM. After an equilibration time of 20 min, half of the medium (100 μl) in each well was replaced by culture medium containing 0.2% (v/v) DMSO to reach a final concentration of 0.1% (v/v) DMSO, which was used as baseline condition. […] At each concentration, the extracellular field potential was recorded for 1 min after 10-min exposure. […] Same test concentrations were chosen for EDDP and EMDP, which enables definition of concentration-dependent curves for EDDP and EMDP that allow potency comparison.
One well of 0.1% (v/v) DMSO on each MEA chip was used as the vehicle control well and run at the same time as the compound exposure wells to correct for time- and DMSO-dependent effects on the field potential. A detailed exposure scheme can be found in Fig. S1. Data were collected using Cardio 2D software (MCS GmbH) with a sample frequency of 10 kHz and a 0.1–3.5-kHz band-pass filter.
Field potential duration (FPD) was defined as duration between the beginning of the sodium spike and the repolarizing peak (Fig. 2). RR-intervals were defined as the duration between two depolarization peaks (Fig. 2). The FPD and RR-interval were measured as the average of at least 30 beats from 1-min recording at each concentration of the test compound.
In this formula, the FPD and RR-interval are expressed in seconds. Data were collected from at least three independent experiments (4–8 wells, 26–38 electrodes), using a new vial of cells (all from the same batch) at each independent experiment. […] The concentrations inducing irregularities in the field potential trace (Fig. S2) were also noted.
The concentration–response curves were plotted with GraphPad Prism 5.0 using the four-parameters logistic fit (GraphPad Software Inc., San Diego, USA). Each data point is presented as the mean value of at least three independent experiments ± standard deviation (SD). Statistical significance of the changes in response of cells exposed to the compound compared to the solvent control was analyzed by one-way ANOVA followed by post Dunnett test. Values of p < 0.05 were regarded as statistically significant (p < 0.05: *, p < 0.01: ** and p < 0.001: ***). Statistical analysis was performed by GraphPad Prism 5.0 (GraphPad Software Inc.).

hERG channels = conditions: ref Eap et al. [2007], cited from earlier work
[1] = cited from earlier work
[2] = In vitro incubations with pooled human liver microsomes; conditions: EDDP as substrate, 1000 µM
Description: The test concentrations were chosen to enable adequate analysis of Michaelis–Menten kinetics. After one-min pre-incubation of this solution at 37 °C, the reactions were initiated by addition of human liver microsomes giving a final concentration of 0.5 mg/ml microsomal protein and incubations were performed in a shaking water bath at 37 °C for 40 min. Control incubations were performed in the absence of NADPH which was replaced with Tris–HCl. The reactions were terminated by addition of 40-µl ice-cold acetonitrile. Samples were kept on ice for at least 20 min and then centrifuged at 18,000g for 5 min at 4 °C to precipitate microsomal proteins.
Vmax and Km were obtained by fitting the data to Eq. (2) in GraphPad Prism 5.0 (GraphPad Software Inc.). Data were collected from three independent experiments and each data point is presented as the mean value ± SD.

[3] = parameters: method as in Hsu et al. ([2013]); conditions: subjects on methadone maintenance treatment; ref Hsu et al. ([2013]); cited from earlier work
[4] = ref Foster [2001]; cited from earlier work
[5] = RED assay, unbound fraction in pooled human plasma
Description: (§1) Then, 25 µl of post-dialysis samples were collected from the sample chambers and transferred to test sample tubes followed by an addition of 25 µl PBS. Equal volumes of post-dialysis samples collected from the buffer chamber which were then mixed with 25 µl of in vitro medium or human plasma in the buffer sample tubes. Then, both samples were precipitated using 300-µl cold acetonitrile/water (90/10 v/v). The samples were put on ice for 30 min followed by centrifugation for 30 min at 15,000g. Then, supernatants were collected for UPLC–PDA analysis.
(§2) The measurements were performed in triplicate in two independent experiments.

[6] = RED assay, unbound fraction in in vitro hiPSC-CM MEA assay medium; conditions: in vitro hiPSC-CM MEA assay medium (serum-free)
Description: as §1, §2

CCC1=NC(C)CC1(c1ccccc1)c1ccccc1 (stereo not drawn) [EMDP, 2-ethyl-5-methyl-3,3-diphenylpyrroline]
concentration shortening the FPDc by 20% (BMC20 for decreasing FPDc) (hiPSC-CM; cumulative addition, 10-min exposure): 3.8 µM | concentration causing beating arrest in certain wells (hiPSC-CM; in certain wells): 30 µM | arrhythmia-type waveforms / FPDc prolongation (hiPSC-CM; test range 0.1-30 µM): without inducing arrhythmia-type waveforms; also recorded: Neither FPDc prolongation nor arrhythmia-type waveforms were observed | cytotoxicity at the test concentrations (hiPSC-CM): no cytotoxicity was observed | hERG channel inhibition (hERG channels): not inhibit hERG channels | in vivo total plasma concentration of EMDP ([1]; after clinical relevant dosing of methadone, ref Alburges et al. [1996]): less than 0.04 µM

CC=C1N(C)C(C)CC1(c1ccccc1)c1ccccc1 (stereo not drawn) [EDDP, 2-ethylidene-1,5-dimethyl-3,3-diphenylpyrrolidine]
BMC20, prolongation of FPDc (hiPSC-CM; 20% change in FPDc over control, cumulative addition, 10-min exposure): 2.3 µM | unbound BMC20 (hiPSC-CM; BMC20 corrected for unbound fraction in medium): 2.07 µM | concentration at which cessation of beating was observed (hiPSC-CM; human, 10 min): 30 µM | concentration from which arrhythmia-like waveforms were induced (hiPSC-CM; tested up to 30 µM): ≥ 3 µM | cytotoxicity at the test concentrations (hiPSC-CM): no cytotoxicity was observed | EMDP formation from EDDP [2]: formation of EMDP was neither detectable | BPr (blood/plasma ratio) [3]: 0.87^c | hERG channel block (hERG channels; Katchman et al. [2002]): weaker hERG channel blocker compared to methadone | recovery of EDDP in feces [4]: up to 39% | free blood Cmax of EDDP ([1]; oral methadone 57.5 mg/day, estimated from reported EDDP data, ref De Vos et al. ([1995])): 0.05 µM | fraction unbound at 5 h, 150 µM [5]: 0.3 ± 0.015 | fraction unbound at 5 h, 150 µM [6]: 0.9 ± 0.072
